Data reported in patent publication US10934282B2, “Heteroaromatic modulators of the retinoid-related orphan receptor gamma” (LEO PHARMA A/S, priority 2016, dated 2021).

Experiments:
[1] = molecular target: T1, human RORgt nuclear receptor (RORgT ligand binding domain protein) (Homo sapiens, UniProt P51449); assay: ROR-gamma binding assay (Scintillation Proximity Assay, displacement of [3H]-25-hydroxycholesterol); conditions: EC50, SPA, 15 nM [3H]-25-Hydroxycholesterol, RORgT LBD 12 nM
T1 construct: purchased Proteros Biostructures GmbH
T1 sequence (P51449 with tags, fused parts or gaps): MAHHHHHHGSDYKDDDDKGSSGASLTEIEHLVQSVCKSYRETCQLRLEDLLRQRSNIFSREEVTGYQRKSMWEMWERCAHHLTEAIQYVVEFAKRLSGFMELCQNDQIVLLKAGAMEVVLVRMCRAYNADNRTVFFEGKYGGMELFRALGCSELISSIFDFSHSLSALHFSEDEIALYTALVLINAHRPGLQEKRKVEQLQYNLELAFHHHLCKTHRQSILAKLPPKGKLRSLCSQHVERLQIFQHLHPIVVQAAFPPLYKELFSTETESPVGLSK
Description: This assay is used to evaluate the binding affinity of compounds to the ligand-binding pocket of the human RORgt nuclear receptor based on displacement of a radio-ligand. The EC50 values are calculated using a four parameter fit. Compounds binding with high affinity to RORgt will have low EC50 values.
The assay is a Scintillation Proximity Assay (SPA) that involves competition between an unlabeled test compound and tritium-labeled 25-hydroxycholesterol for binding to RORgT ligand binding domain (LBD) protein immobilized on the surface of SPA beads. These beads contain a scintillant that emits light if excited by a radioactive particle, and this light is detected using a scintillation counter. In this assay, tritium-labelled 25-hydroxycholesterol is used as radiotracer.
400 nL of titrated test and reference compounds in DMSO were transferred by the Echo liquid handling system to a 384-well assay plate followed by addition of 5 μL [3H]-25-Hydroxycholesterol (Perkin Elmer) and 35 μL diluted RORgT LBD protein with the following amino acid sequence (HIS-FLG-tag): MAHHHHHHGSDYKDDDDKGSSGASLTEIEHLVQSVCKSYRETCQLRLEDLLRQRSNIFSREEVTGYQRKSMWEMWERCAHHLTEAIQYVVEFAKRLSGFMELCQNDQIVLLKAGAMEVVLVRMCRAYNADNRTVFFEGKYGGMELFRALGCSELISSIFDFSHSLSALHFSEDEIALYTALVLINAHRPGLQEKRKVEQLQYNLELAFHHHLCKTHRQSILAKLPPKGKLRSLCSQHVERLQIFQHLHPIVVQAAFPPLYKELFSTETESPVGLSK (SEQ ID NO: 1) (Purchased from Proteros Biostructures GmbH). After 30 min of preincubation, 40 μL of HIS-TAG PVT SPA beads (Perkin Elmer) were added. The plates were then incubated for minimum 4 hours at room temperature in darkness before measuring the SPA signal using a MicroBeta plate scintillation counter. Final assay conditions were: 50 mM HEPES pH 7.4, 150 mM NaCl, 5 mM MgCl2, 0.1% BSA, 4 μg/well HIS-TAG PVT SPA Beads, 30 ng/well RORgT LBD (equal to a final concentration of 12 nM), 15 nM [^3H]-25-Hydroxycholesterol, 0.5% DMSO and varying concentrations of test compound in a total volume of 80 μL/well. EC50 values were calculated using a 4-parameter non-linear regression curve-fitting model.

[2] = system: IL-17A in Human peripheral mononuclear cells; assay: Human PBMC IL-17A assay; format: cell-based; conditions: 72 h, EC50, antiCD3/antiCD28-coated beads, 3 days, alpha-LISA
Description: This assay measures the IL-17A inhibitory potential of test compounds in Human peripheral mononuclear cells.
Peripheral blood mononuclear cells (PBMC) were isolated from human buffy coats using density grade centrifugation (Lymphoprep, Medinor), washed twice in PBS and frozen at −150° C. for later use.
Test compounds were diluted in DMSO and 70 nL of titrated test and reference compounds were transferred by the Echo liquid handling system to a 384-well assay plate in to give a final concentration of 0.1% DMSO in the wells.
The PBMC were thawed, washed and suspended in RPMI-1640 supplemented with pen/strep, glutamax and 10% bovine calf serum. The cells were mixed with antiCD3/antiCD28-coated beads (1 cells pr one bead) (Milteney T-cell expansion kit), and immediately thereafter the cells were pipetted to the plate at 130,000c/well. The plate was incubated for 3 days in humidified air/CO2 (95%/5%) On day 3 the level of IL-17A in the culture supernatant is measured using alpha-LISA kit (Perkin Elmer). Cell viability was measured by adding 6 uL pr well Prestoblue© (Life Technologies) and incubating for 2 hours followed by fluorescent measurement (Ex535/Em615). EC50 values were calculated using a 4-parameter non-linear regression curve-fitting model. Donors may be pre-screened in order to select PBMC with a high secretion of IL-17A.

[3] = system: IL-17A levels in human peripheral blood; assay: tissue or blood; format: cell-based; conditions: 72 h, read-out: Human Whole blood IL-17A (nM)

| SMILES | EC50 [1] [nM] | EC50 [2] [nM] | EC50 [3] [nM] |
| --- | --- | --- | --- |
| Cc1cc(CN2CCN(C(=O)OC(C)C)[C@@H](C)C2)c(C)c(Nc2nnc([C@@H](C)O)o2)c1 [Example 56, isopropyl (2S)-4-[[3-[[5-[(1R)-1-hydroxyethyl]-1,3,4-oxadiazol-2-yl]amino]-2,5-dimethyl-phenyl]methyl]-2-methyl-piperazine-1-carboxylate] | 36.5 | 51.9 | 92.2 |
| Cc1cc(CN2CCN(C(=O)OC(C)C)[C@@H](C)C2)c(C)c(Nc2nnc(C3CNC(=O)C3)o2)c1 (stereo partly drawn) [Example 51, isopropyl (2S)-4-[[2,5-dimethyl-3-[[5-(5-oxopyrrolidin-3-yl)-1,3,4-oxadiazol-2-yl]amino]phenyl]methyl]-2-methyl-piperazine-1-carboxylate] | 64.4 | 216 | 266 |
| Cc1c(CN2CCN(C(=O)OC(C)C)[C@@H](C)C2)cc(Cl)cc1Nc1nnc(C2CCNC2=O)o1 (stereo partly drawn) [Example 48, isopropyl (2S)-4-[[5-chloro-2-methyl-3-[[5-(2-oxopyrrolidin-3-yl)-1,3,4-oxadiazol-2-yl]amino]phenyl]methyl]-2-methyl-piperazine-1-carboxylate] | 37.2 | 191 | 296 |
| Cc1c(CN2CCN(C(=O)OC(C)C)[C@@H](C)C2)cc(Cl)cc1Nc1nnc(C2COC2)o1 [Example 40, isopropyl (2S)-4-[[5-chloro-2-methyl-3-[[5-(oxetan-3-yl)-1,3,4-oxadiazol-2-yl]amino]phenyl]methyl]-2-methyl-piperazine-1-carboxylate] | 21.2 | 212 | 365 |
| Cc1cc(CN2CCN(C(=O)OC(C)C)[C@@H](C)C2)c(C)c(Nc2nnc(-c3ccnn3C)o2)c1 [Example 59, isopropyl (2S)-4-[[2,5-dimethyl-3-[[5-(2-methylpyrazol-3-yl)-1,3,4-oxadiazol-2-yl]amino]phenyl]methyl]-2-methyl-piperazine-1-carboxylate] | 25.7 | 123 | 211 |
| Cc1c(CN2CCN(C(=O)OC(C)C)[C@@H](C)C2)cc(Cl)cc1Nc1nnc(C(O)C(F)(F)F)o1 (stereo partly drawn) [Example 47, isopropyl (2S)-4-[[5-chloro-2-methyl-3-[[5-(2,2,2-trifluoro-1-hydroxy-ethyl)-1,3,4-oxadiazol-2-yl]amino]phenyl]methyl]-2-methyl-piperazine-1-carboxylate] | 26.6 | 63.2 | 307 |
| Cc1cc(CN2CCN(C(=O)O[C@H](C)C(F)(F)F)[C@@H](C)C2)c(C)c(Nc2nnc([C@H]3NCC[C@H]3O)o2)c1 [Example 80, [(1R)-2,2,2-trifluoro-1-methyl-ethyl] (2S)-4-[[3-[[5-[(2S,3R)-3-hydroxypyrrolidin-2-yl]-1,3,4-oxadiazol-2-yl]amino]-2,5-dimethyl-phenyl]methyl]-2-methyl-piperazine-1-carboxylate] | 22.3 | 70 | – |
| Cc1cc(CN2CCN(C(=O)OC(C)(C)C)[C@@H](C)C2)c(C)c(Nc2nnc(-c3ccnn3C)o2)c1 [Example 31, tert-butyl (2S)-4-[[2,5-dimethyl-3-[[5-(2-methylpyrazol-3-yl)-1,3,4-oxadiazol-2-yl]amino]phenyl]methyl]-2-methyl-piperazine-1-carboxylate] | 32.4 | 63.5 | 231 |
| Cc1cc(CN2CCN(C(=O)OC(C)C)[C@@H](C)C2)c(C)c(Nc2nnc(CC#N)o2)c1 [Example 42, isopropyl (2S)-4-[[3-[[5-(cyanomethyl)-1,3,4-oxadiazol-2-yl]amino]-2,5-dimethyl-phenyl]methyl]-2-methyl-piperazine-1-carboxylate] | 48 | 34.2 | 359 |
| Cc1cc(CN2CCN(C(=O)OC(C)(C)C)[C@@H](C)C2)c(C)c(Nc2nnc(-c3cnnn3C)o2)c1 [Example 30, tert-butyl (2S)-4-[[2,5-dimethyl-3-[[5-(3-methyltriazol-4-yl)-1,3,4-oxadiazol-2-yl]amino]phenyl]methyl]-2-methyl-piperazine-1-carboxylate] | 31.2 | 93.6 | 239 |
| Cc1c(CN2CCN(C(=O)OC(C)C)[C@@H](C)C2)cc(Cl)cc1Nc1nnc(C2CCCOC2)o1 (stereo partly drawn) [Example 44, isopropyl (2S)-4-[[5-chloro-2-methyl-3-[(5-tetrahydropyran-3-yl-1,3,4-oxadiazol-2-yl)amino]phenyl]methyl]-2-methyl-piperazine-1-carboxylate] | 22.7 | 26 | 330 |
| Cc1cc(CN2CCN(C(=O)OC(C)C)[C@@H](C)C2)c(C)c(Nc2nnc([C@H](C)O)o2)c1 [Example 66, isopropyl (2S)-4-[[3-[[5-[(1S)-1-hydroxyethyl]-1,3,4-oxadiazol-2-yl]amino]-2,5-dimethyl-phenyl]methyl]-2-methyl-piperazine-1-carboxylate] | 54.8 | 77.6 | 140 |
| CC[C@@H](C)OC(=O)N1CCN(Cc2cc(C)cc(Nc3nnc([C@H]4NCC[C@H]4O)o3)c2C)C[C@@H]1C [Example 82, [(1R)-1-methylpropyl] (2S)-4-[[3-[[5-[(2S,3R)-3-hydroxypyrrolidin-2-yl]-1,3,4-oxadiazol-2-yl]amino]-2,5-dimethyl-phenyl]methyl]-2-methyl-piperazine-1-carboxylate] | 32 | 46 | – |
| Cc1cc(CN2CCN(C(=O)OC(C)(C)C)[C@@H](C)C2)c(C)c(Nc2nnc([C@H](C)O)o2)c1 [Example 28, tert-butyl (2S)-4-[[3-[[5-[(1S)-1-hydroxyethyl]-1,3,4-oxadiazol-2-yl]amino]-2,5-dimethyl-phenyl]methyl]-2-methyl-piperazine-1-carboxylate] | 35.5 | 107 | – |
| Cc1c(CN2CCN(C(=O)c3ccccc3)[C@@H](C)C2)cc(Cl)cc1Nc1nnc(C#N)o1 [Example 1, 5-[3-[[(3S)-4-benzoyl-3-methyl-piperazin-1-yl]methyl]-5-chloro-2-methyl-anilino]-1,3,4-oxadiazole-2-carbonitrile] | 40.2 | 3030 | – |
| Cc1c(CN2CCN(C(=O)OCC(F)(F)F)[C@@H](C)C2)cc(Cl)cc1Nc1nnc(CC#N)o1 [Example 69, 2,2,2-trifluoroethyl (2S)-4-[[5-chloro-3-[[5-(cyanomethyl)-1,3,4-oxadiazol-2-yl]amino]-2-methyl-phenyl]methyl]-2-methyl-piperazine-1-carboxylate] | 70 | 308 | – |
| Cc1cc(CN2CCN(C(=O)OCC(F)(F)F)[C@@H](C)C2)c(C)c(Nc2nnc([C@H]3NCC[C@H]3O)o2)c1 [Example 81, 2,2,2-trifluoroethyl (2S)-4-[[3-[[5-[(2S,3R)-3-hydroxypyrrolidin-2-yl]-1,3,4-oxadiazol-2-yl]amino]-2,5-dimethyl-phenyl]methyl]-2-methyl-piperazine-1-carboxylate] | 110 | 1520 | – |
